# Test results as given in US10072003B2, “Tetrahydronaphthyridine derivatives as mGluR2-negative allosteric modulators, compositions, and their use” (Merck Sharp & Dohme Corp., priority 2014, dated 2018).
# Target: recombinant human mGluR2 (Homo sapiens (Human), UniProt Q14416)
# Test: FLIPR Ca2+ mobilization antagonist assay in CHO dhfr- cells expressing human mGluR2 and Gα16
# Assay type: cell-based
# Settings: antagonist response after addition of 2,500 nM glutamate, Fluo-4 AM, FLIPR384
# Summary of the method: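 CHO dhfr- cells stably co-expressing human mGluR2 and Gα16, Fluo-4 AM loaded, preincubated with compound, then challenged with 2,500 nM glutamate; Ca2+ response read by FLIPR. Maximum calcium response vs concentration fitted to four-parameter logistic for IC50.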
# recombinant human mGluR2, sequence (Q14416 19-872): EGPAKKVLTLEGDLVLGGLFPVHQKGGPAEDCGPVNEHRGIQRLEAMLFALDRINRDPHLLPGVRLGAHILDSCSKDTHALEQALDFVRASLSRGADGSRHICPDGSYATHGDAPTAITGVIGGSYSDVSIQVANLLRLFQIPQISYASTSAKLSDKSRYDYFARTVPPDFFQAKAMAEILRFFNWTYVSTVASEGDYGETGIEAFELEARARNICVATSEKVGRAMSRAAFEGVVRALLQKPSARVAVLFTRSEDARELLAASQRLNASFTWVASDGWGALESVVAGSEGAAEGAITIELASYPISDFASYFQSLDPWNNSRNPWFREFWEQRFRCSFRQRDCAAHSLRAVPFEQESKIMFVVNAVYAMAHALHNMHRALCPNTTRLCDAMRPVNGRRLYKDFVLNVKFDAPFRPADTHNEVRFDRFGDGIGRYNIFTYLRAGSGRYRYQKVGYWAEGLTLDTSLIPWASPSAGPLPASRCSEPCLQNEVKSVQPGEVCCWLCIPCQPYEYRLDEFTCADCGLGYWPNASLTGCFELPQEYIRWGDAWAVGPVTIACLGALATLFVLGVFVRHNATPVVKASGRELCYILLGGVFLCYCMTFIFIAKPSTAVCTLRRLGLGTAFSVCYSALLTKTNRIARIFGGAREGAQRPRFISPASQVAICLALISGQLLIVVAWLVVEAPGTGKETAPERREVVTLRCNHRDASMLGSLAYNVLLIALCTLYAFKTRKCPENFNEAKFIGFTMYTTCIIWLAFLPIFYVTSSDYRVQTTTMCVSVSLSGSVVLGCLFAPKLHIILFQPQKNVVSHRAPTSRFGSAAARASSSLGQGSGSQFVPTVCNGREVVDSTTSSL
row,IC50 [nM],Structure (SMILES)
1,11.8,"NC(=O)c1cc(-c2ccccc2F)c2c(n1)CN(Cc1ccnc(C(F)(F)F)n1)CC2 [Example 11-8, 4-(2-fluorophenyl)-7-{[2-(trifluoromethyl)pyrimidin-4-yl]methyl}-5,6,7,8-tetrahydro-1,7-naphthyridine-2-carboxamide]"
2,10,"NC(=O)c1cc(-c2ccc(Cl)cc2F)c2c(n1)CN(Cc1cc(C(F)(F)F)ncn1)CC2 [Example 11-12, 4-(4-chloro-2-fluorophenyl)-7-{[6-(trifluoromethyl)pyrimidin-4-yl]methyl}-5,6,7,8-tetrahydro-1,7-naphthyridine-2-carboxamide]"
3,52.1,"NC(=O)c1cc(-c2cc(F)ccc2F)c2c(n1)CN(Cc1ccnc(C(F)(F)F)n1)CC2 [Example 11-2, 4-(2,5-difluorophenyl)-7-{[2-(trifluoromethyl)pyrimidin-4-yl]methyl}-5,6,7,8-tetrahydro-1,7-naphthyridine-2-carboxamide]"
4,26.7,"Cc1cc(-c2cc(C(N)=O)nc3c2CCN(Cc2ccnc(OC(F)F)c2)C3)sn1 [Example 2-16, 7-{[2-(difluoromethoxy)pyridin-4-yl]methyl}-4-(3-methylisothiazol-5-yl)-5,6,7,8-tetrahydro-1,7-naphthyridine-2-carboxamide]"
5,11.4,"COc1cc(C(N2CCc3c(-c4cnn(C)c4)cc(C(N)=O)nc3C2)C(F)(F)F)ccn1 (racemic) [Example 3-2B, (S) and (R)-4-(1-methyl-1H-pyrazol-4-yl)-7-(2,2,2-trifluoro-1-(2-methoxypyridin-4-yl)ethyl)-5,6,7,8-tetrahydro-1,7-naphthyridine-2-carboxamide]"
6,16,"COc1cc(CN2CCc3c(-c4ccc(Cl)cc4F)cc(C(N)=O)nc3C2)ccn1 [Example 13-3, 4-(4-chloro-2-fluorophenyl)-7-[(2-methoxypyridin-4-yl)methyl]-5,6,7,8-tetrahydro-1,7-naphthyridine-2-carboxamide]"
7,22.3,"NC(=O)c1cc(-c2ccc(F)cc2)c2c(n1)CN(C(c1cccnc1)C(F)(F)F)CC2 (racemic) [Example 3-1B, (S) and (R)-4-(4-fluorophenyl)-7-(2,2,2-trifluoro-1-(pyridin-3-yl)ethyl)-5,6,7,8-tetrahydro-1,7-naphthyridine-2-carboxamide]"
8,26.1,"NC(=O)c1cc(-c2c(F)cc(F)cc2F)c2c(n1)CN(Cc1cc(C(F)(F)F)ncn1)CC2 [Example 11-11, 7-{[6-(trifluoromethyl)pyrimidin-4-yl]methyl}-4-(2,4,6-trifluorophenyl)-5,6,7,8-tetrahydro-1,7-naphthyridine-2-carboxamide]"
9,20.4,"NC(=O)c1cc(N2CCC3(CC2)CC3)c2c(n1)CN(Cc1cc(C(F)(F)F)ncn1)CC2 [Example 12-5, 4-(6-azaspiro[2.5]oct-6-yl)-7-{[6-(trifluoromethyl)pyrimidin-4-yl]methyl}-5,6,7,8-tetrahydro-1,7-naphthyridine-2-carboxamide]"
10,13.1,"Cc1conc1CN1CCc2c(-c3ccc(F)cc3F)cc(C(N)=O)nc2C1 [Example 2-26, 4-(2,4-difluorophenyl)-7-[(4-methylisoxazol-3-yl)methyl]-5,6,7,8-tetrahydro-1,7-naphthyridine-2-carboxamide]"
11,45.2,"CC1(C)CC(CN2CCc3c(-c4ccc(F)cc4F)cc(C(N)=O)nc3C2)CCO1 (single isomer, unassigned) [Example 1-11B, (S) or (R)-4-(2,4-difluorophenyl)-7-[(2,2-dimethyltetrahydro-2H-pyran-4-yl)methyl]-5,6,7,8-tetrahydro-1,7-naphthyridine-2-carboxamide]"
12,5.6,"CC1(C)CC(CN2CCc3c(-c4ccc(Cl)cc4F)cc(C(N)=O)nc3C2)CCO1 (single isomer, unassigned) [Example 1-5A, (R) or (S)-4-(4-chloro-2-fluorophenyl)-7-((2,2-dimethyltetrahydro-2H-pyran-4-yl)methyl)-5,6,7,8-tetrahydro-1,7-naphthyridine-2-carboxamide]"
13,129,"NC(=O)c1cc(-c2ccc(F)cc2)c2c(n1)CN(C[C@H]1CCO[C@@H](C3CC3)C1)CC2 [Example 1-2B, 7-(((2R,4S)-2-cyclopropyltetrahydro-2H-pyran-4-yl)methyl)-4-(4-fluorophenyl)-5,6,7,8-tetrahydro-1,7-naphthyridine-2-carboxamide]"
14,21.2,"CC(c1ccnc(C(F)(F)F)c1)N1CCc2c(-c3cnn(C(F)F)c3)cc(C(N)=O)nc2C1 (single isomer, unassigned) [Example 7-3B, (R) or (S)-4-[1-(difluoromethyl)-1H-pyrazol-4-yl]-7-{(1S)-1-[2-(trifluoromethyl)pyridin-4-yl]ethyl}-5,6,7,8-tetrahydro-1,7-naphthyridine-2-carboxamide]"
15,84.1,"CC(C)(C)n1nccc1CN1CCc2c(-c3ccncc3)cc(C(N)=O)nc2C1 [Example 1-13, 7-[(1-tert-butyl-1H-pyrazol-5-yl)methyl]-4-pyridin-4-yl-5,6,7,8-tetrahydro-1,7-naphthyridine-2-carboxamide]"
16,19.4,"NC(=O)c1cc(-c2ccc(Cl)cn2)c2c(n1)CN(Cc1ccnn1C(F)F)CC2 [Example 2-22, 4-(5-chloropyridin-2-yl)-7-{[1-(difluoromethyl)-1H-pyrazol-5-yl]methyl}-5,6,7,8-tetrahydro-1,7-naphthyridine-2-carboxamide]"
17,5.3,"CC1c2nc(C(N)=O)cc(-c3ccc(F)cc3F)c2CCN1Cc1ccnn1C(C)C (single isomer, unassigned) [Example 1-15B, (R) or (S)-4-(2,4-difluorophenyl)-8-methyl-7-{[1-(1-methylethyl)-1H-pyrazol-5-yl]methyl}-5,6,7,8-tetrahydro-1,7-naphthyridine-2-carboxamide]"
18,21.4,"NC(=O)c1cc(N2CCCC(F)C2)c2c(n1)CN(Cc1ccnc(C(F)(F)F)c1)CC2 (single isomer, unassigned) [Example 5-6A, (S) or (R)-4-(3-fluoropiperidin-1-yl)-7-((2-(trifluoromethyl)pyridin-4-yl)methyl)-5,6,7,8-tetrahydro-1,7-naphthyridine-2-carboxamide]"
19,20.4,"NC(=O)c1cc(-c2ccc(F)c(F)c2)c2c(n1)CN(Cc1ccnc(C(F)(F)F)c1)CC2 [Example 2-4, 4-(3,4-difluorophenyl)-7-{[2-(trifluoromethyl)pyridin-4-yl]methyl}-5,6,7,8-tetrahydro-1,7-naphthyridine-2-carboxamide]"
20,23.9,"Cn1ncnc1CN1CCc2c(-c3ccc(Cl)cc3F)cc(C(N)=O)nc2C1 [Example 9-4, 4-(4-chloro-2-fluorophenyl)-7-[(1-methyl-1H-1,2,4-triazol-5-yl)methyl]-5,6,7,8-tetrahydro-1,7-naphthyridine-2-carboxamide]"
21,7.8,"COc1cc(CN2CCc3c(-c4ccc(F)cc4F)cc(C(N)=O)nc3C2)ccn1 [Example 13-1, 4-(2,4-difluorophenyl)-7-((2-methoxypyridin-4-yl)methyl)-5,6,7,8-tetrahydro-1,7-naphthyridine-2-carboxamide]"
22,29.3,"CC(c1ccnc(C(F)(F)F)c1)N1CCc2c(-c3cnn(C(F)F)c3)cc(C(N)=O)nc2C1 (single isomer, unassigned) [Example 7-3A, (S) or (R)-4-[1-(difluoromethyl)-1H-pyrazol-4-yl]-7-{(1R)-1-[2-(trifluoromethyl)pyridin-4-yl]ethyl}-5,6,7,8-tetrahydro-1,7-naphthyridine-2-carboxamide]"
23,14.5,"Cn1nccc1CN1CCc2c(-c3ccc(F)cc3F)cc(C(N)=O)nc2C1 [Example 1-6, 4-(2,4-difluorophenyl)-7-[(1-methyl-1H-pyrazol-5-yl)methyl]-5,6,7,8-tetrahydro-1,7-naphthyridine-2-carboxamide]"
24,45.2,"NC(=O)c1cc(-c2c(F)cccc2Cl)c2c(n1)CN(Cc1ccnc(C(F)(F)F)n1)CC2 [Example 11-7, 4-(2-chloro-6-fluorophenyl)-7-{[2-(trifluoromethyl)pyrimidin-4-yl]methyl}-5,6,7,8-tetrahydro-1,7-naphthyridine-2-carboxamide]"
25,12.9,"CC1CCCN(c2cc(C(N)=O)nc3c2CCN(Cc2ccnc(C(F)(F)F)c2)C3)C1 (single isomer, unassigned) [Example 5-5B, (R) or (S)-4-(3-methylpiperidin-1-yl)-7-((2-(trifluoromethyl)pyridin-4-yl)methyl)-5,6,7,8-tetrahydro-1,7-naphthyridine-2-carboxamide]"
26,27.1,"CC1(C)CC(O)(CN2CCc3c(-c4ccc(F)cc4F)cc(C(N)=O)nc3C2)CCO1 (single isomer, unassigned) [Example 14-2B]"
27,8.5,"NC(=O)c1cc(-c2cnn(C(F)F)c2)c2c(n1)CN(Cc1ccnc(OC(F)F)c1)CC2 [Example 2-12, 7-{[2-(difluoromethoxy)pyridin-4-yl]methyl}-4-[1-(difluoromethyl)-1H-pyrazol-4-yl]-5,6,7,8-tetrahydro-1,7-naphthyridine-2-carboxamide]"
28,88.7,"COc1cnn(-c2cc(C(N)=O)nc3c2CCN(Cc2ccnc(C(F)(F)F)c2)C3)c1 [Example 5-8, 4-(4-methoxy-1H-pyrazol-1-yl)-7-{[2-(trifluoromethyl)pyridin-4-yl]methyl}-5,6,7,8-tetrahydro-1,7-naphthyridine-2-carboxamide]"
29,37.4,"CC(c1cnnn1C)N1CCc2c(-c3ccc(F)cc3F)cc(C(N)=O)nc2C1 (single isomer, unassigned) [Example 7-1, (S) or (R)-4-(2,4-difluorophenyl)-7-(1-(1-methyl-1H-1,2,3-triazol-5-yl)ethyl)-5,6,7,8-tetrahydro-1,7-naphthyridine-2-carboxamide]"
30,7.6,"NC(=O)c1cc(-c2ccc(F)cc2)c2c(n1)CN(Cc1cc(C(F)(F)F)ncn1)CC2 [Example 11-10, 4-(4-fluorophenyl)-7-{[6-(trifluoromethyl)pyrimidin-4-yl]methyl}-5,6,7,8-tetrahydro-1,7-naphthyridine-2-carboxamide]"

row,Structure (SMILES),IC50 [nM]
1,"CC1(C)CC(O)(CN2CCc3c(-c4ccc(F)cc4F)cc(C(N)=O)nc3C2(C)C)CO1 (single isomer, unassigned) [Example 15-1B]",23.6
